This note sets out measurements from ChEMBL document CHEMBL5104211, “Design and synthesis of bile acid derivatives and their activity against colon cancer” (RSC Med Chem, 2022).

One series concerns HT-29. In words: Anticancer activity against human HT-29 cells assessed as inhibition of cell proliferation by MTT assay. Format: functional, cell-based. In general terms: Tetrazolium dyes change colour on reduction, which living cells bring about.
For a further series, the system named is HCT-116. The series can be described thus: Anticancer activity against human HCT-116 cells assessed as inhibition of cell proliferation by MTT assay. Type of series: functional, cell-based.
The next series concerns RKO. In words: Anticancer activity against human RKO cells assessed as inhibition of cell proliferation by MTT assay. Type of series: functional, cell-based.
A further series deals with LoVo. In words: Anticancer activity against human LoVo cells assessed as inhibition of cell proliferation by MTT assay. Type of series: functional, cell-based.
Another series has as its system SW480. The series can be described thus: Anticancer activity against human SW480 cells assessed as inhibition of cell proliferation by MTT assay. Format: functional, cell-based.
The subject of another series is Huh-7. In words: Anticancer activity against human Huh-7 cells assessed as inhibition of cell proliferation by MTT assay. Format: functional, cell-based.
For another series, the system named is SK-HEP1. The series can be described thus: Anticancer activity against human SK-HEP1 cells assessed as inhibition of cell proliferation by MTT assay. Format: functional, cell-based.
In the next series the test system is A549. In words: Anticancer activity against human A549 cells assessed as inhibition of cell proliferation by MTT assay. Format: functional, cell-based.
Another series has as its system MGC-803. In words: Anticancer activity against human MGC-803 cells assessed as inhibition of cell proliferation by MTT assay. Format: functional, cell-based.
Series [1] in a line: Cytotoxicity against human WI-38 cells assessed as inhibition of cell proliferation by MTT assay. Type of series: toxicity, cell-based.

pIC50: −log10 of the molar value.

Consider `COc1cc(COC(=O)CC[C@@H](C)[C@H]2CC[C@H]3[C@@H]4[C@H](O)C[C@@H]5C[C@H](O)CC[C@]5(C)[C@H]4CC[C@]23C)cc(OC)c1`, for which the pIC50 with HT-29 was 4.59; with HCT-116, 4.35; with RKO it was 4.34; with LoVo, 4.67; with SW480, 4.42; in the series on Huh-7 it was 4.20. Besides, the negative logarithm of the IC50 (pIC50) in the series on SK-HEP1 is 4.19; in the series with A549, 4.00; in the series with MGC-803, 4.44; in series [1] it was less than 3.70.

In the case of `C[C@H](CCC(=O)O)[C@H]1CC[C@H]2[C@@H]3[C@@H](O)C[C@@H]4C[C@H](O)CC[C@]4(C)[C@H]3CC[C@]12C` [URSODIOL], the negative-log IC50 (pIC50) with HT-29, with HCT-116, with RKO, in the series with LoVo, in the series on SW480 and with Huh-7 was less than 3.70 in each case. For the same compound, the negative-log IC50 (pIC50) with SK-HEP1, with A549 and with MGC-803 was less than 3.70 throughout.

For `C[C@H](CCC(=O)NCc1ccccc1O)[C@H]1CC[C@H]2[C@@H]3[C@H](O)C[C@@H]4C[C@H](O)CC[C@]4(C)[C@H]3C[C@H](O)[C@]12C`, the negative-log IC50 (pIC50) is 4.49 in the series on HT-29; 4.44 in the series with HCT-116; 4.31 with RKO; 4.29 in the series with LoVo; 4.45 with SW480; 4.20 with Huh-7. Besides, the pIC50 in the series on SK-HEP1 is 4.60; in the series with A549, 4.39; in the series on MGC-803, 4.37; in series [1], less than 3.70.

On to `COC(=O)[C@H](CCSC)NC(=O)CC[C@@H](C)[C@H]1CC[C@H]2[C@@H]3[C@H](O)C[C@@H]4C[C@H](O)CC[C@]4(C)[C@H]3C[C@H](O)[C@]12C`, for which the pIC50 is 3.90 in the series with HT-29; 4.07 in the series on HCT-116; 4.01 in the series on RKO; 4.29 in the series with LoVo; 4.19 with SW480; 3.72 in the series with Huh-7. For the same compound, the pIC50 with SK-HEP1 was 3.76; in the series on A549, less than 3.70; with MGC-803, 4.01; in series [1], less than 3.70.

Regarding `C[C@H](CCC(=O)O)[C@H]1CC[C@H]2[C@@H]3[C@H](O)C[C@@H]4C[C@H](O)CC[C@]4(C)[C@H]3C[C@H](O)[C@]12C` [CHOLIC ACID], the pIC50 in the series on HT-29, in the series on HCT-116, in the series on RKO, with LoVo, in the series on SW480 and with Huh-7 was less than 3.70 in each case. Further, the pIC50 in the series with SK-HEP1, in the series with A549 and in the series with MGC-803 was less than 3.70 each time.

`C[C@H](CCC(=O)OCc1cccc(O)c1)[C@H]1CC[C@H]2[C@@H]3[C@H](O)C[C@@H]4C[C@H](O)CC[C@]4(C)[C@H]3CC[C@]12C`: the negative logarithm of the IC50 (pIC50) with HT-29 was 4.47; in the series with HCT-116, 4.37; in the series with RKO, 3.89; in the series on LoVo, 4.39; with SW480, 4.37; with Huh-7 it was 3.91. The pIC50 with SK-HEP1 was 4.00; in the series with A549, 4.16; in the series with MGC-803, 4.31; in series [1], less than 3.70.

In the case of `C[C@H](CCC(=O)O)[C@H]1CC[C@H]2[C@@H]3[C@H](O)C[C@@H]4C[C@H](O)CC[C@]4(C)[C@H]3CC[C@]12C` [CHENODIOL], the pIC50 with HT-29, in the series with HCT-116, in the series on RKO, with LoVo, in the series on SW480 and with Huh-7 was less than 3.70 in each case. The pIC50 with SK-HEP1, with A549 and with MGC-803 was less than 3.70 each time.

Turning to `C[C@H](CCC(=O)OCc1cccc(O)c1)[C@H]1CC[C@H]2[C@@H]3[C@H](O)C[C@@H]4C[C@H](O)CC[C@]4(C)[C@H]3C[C@H](O)[C@]12C`, the pIC50 is 4.62 with HT-29; 4.48 in the series with HCT-116; 4.32 with RKO; 4.54 with LoVo; 4.41 in the series on SW480; 3.99 in the series on Huh-7. Also, the pIC50 was 4.21 in the series with SK-HEP1, 4.32 in the series on A549, 4.26 with MGC-803 and less than 3.70 in series [1].

As for `CC(=O)Oc1ccc(OC(=O)CC[C@@H](C)[C@H]2CC[C@H]3[C@@H]4[C@@H](O)C[C@@H]5C[C@@H](O)CC[C@]5(C)[C@H]4CC[C@]23C)cc1`, the pIC50 in the series on HT-29 was 3.91; in the series on HCT-116, 3.99; with RKO, 3.73; in the series with LoVo, 3.78; in the series with SW480, less than 3.82; in the series on Huh-7 it was 3.73. The negative logarithm of the IC50 (pIC50) was 3.75 in the series on SK-HEP1, 3.73 in the series on A549, 3.95 in the series on MGC-803 and less than 3.70 in series [1].

Turning to `C[C@H](CCC(=O)O)[C@H]1CC[C@H]2[C@@H]3CC[C@@H]4C[C@H](O)CC[C@]4(C)[C@H]3CC[C@]12C` [LITHOCHOLIC ACID], the pIC50 with HT-29, in the series on HCT-116, with RKO, in the series with LoVo, with SW480 and in the series with Huh-7 was less than 3.70 throughout. Moreover, the negative logarithm of the IC50 (pIC50) in the series with SK-HEP1, in the series with A549 and in the series with MGC-803 was less than 3.70 each time.

As for `C[C@H](CCC(=O)OCc1cccc(O)c1)[C@H]1CC[C@H]2[C@@H]3CC[C@@H]4C[C@H](O)CC[C@]4(C)[C@H]3CC[C@]12C`, the pIC50 is 3.76 with HT-29; 3.85 in the series on HCT-116; 3.82 in the series with RKO; 3.80 in the series on LoVo; 3.74 in the series on SW480; 3.73 in the series on Huh-7. Besides, the pIC50 with SK-HEP1 was 3.90; in the series with A549 it was less than 3.70; in the series on MGC-803, less than 3.70; in series [1], less than 3.70.

With `Cc1ccc(COC(=O)CC[C@@H](C)[C@H]2CC[C@H]3[C@@H]4[C@H](O)C[C@@H]5C[C@H](O)CC[C@]5(C)[C@H]4CC[C@]23C)cc1`, the negative logarithm of the IC50 (pIC50) with HT-29 is 4.59; with HCT-116, 4.27; in the series on RKO, 4.38; in the series on LoVo, 4.56; with SW480, 4.37; in the series on Huh-7, 4.56. Moreover, the pIC50 is 4.26 in the series with SK-HEP1, 4.06 in the series with A549, 4.43 in the series with MGC-803 and less than 3.70 in series [1].

Take `C[C@H](CCC(=O)OCc1cccc(O)c1)[C@H]1CC[C@H]2[C@@H]3[C@@H](O)C[C@@H]4C[C@@H](O)CC[C@]4(C)[C@H]3CC[C@]12C`: the pIC50 with HT-29 is 4.23; in the series with HCT-116 it was 4.27; in the series with RKO, 4.16; in the series with LoVo, 4.35; in the series on SW480, 4.00; in the series with Huh-7 it was 3.82. In addition, the pIC50 is 3.81 with SK-HEP1, less than 3.70 with A549, 4.23 in the series with MGC-803 and less than 3.70 in series [1].

With `CC(=O)Oc1ccc(OC(=O)CC[C@@H](C)[C@H]2CC[C@H]3[C@@H]4[C@H](O)C[C@@H]5C[C@H](O)CC[C@]5(C)[C@H]4CC[C@]23C)cc1`, the pIC50 in the series on HT-29 is 4.25; in the series with HCT-116, 3.83; in the series with RKO, 3.85; with LoVo, 4.11; in the series on SW480, 4.00; with Huh-7 it was 4.22. In addition, the pIC50 with SK-HEP1 was 4.07; in the series with A549, less than 3.70; in the series on MGC-803 it was 3.96; in [1], less than 3.70.

For `C[C@H](CCC(=O)OCc1ccc([N+](=O)[O-])cc1)[C@H]1CC[C@H]2[C@@H]3[C@H](O)C[C@@H]4C[C@H](O)CC[C@]4(C)[C@H]3CC[C@]12C`, the pIC50 in the series on HT-29 was 4.53; in the series on HCT-116 it was 4.39; in the series on RKO, 4.36; with LoVo, 4.52; in the series on SW480 it was 4.36; in the series on Huh-7 it was 4.35. Further, the pIC50 in the series on SK-HEP1 was 3.95; in the series with A549, 4.06; with MGC-803 it was 4.30; in series [1] it was less than 3.70.

Turning to `CC(=O)Nc1ccc(OC(=O)CC[C@@H](C)[C@H]2CC[C@H]3[C@@H]4[C@H](O)C[C@@H]5C[C@H](O)CC[C@]5(C)[C@H]4C[C@H](O)[C@]23C)cc1`, the pIC50 in the series on HT-29 was 4.27; in the series on HCT-116 it was 4.27; in the series on RKO, 4.44; in the series with LoVo, 4.24; in the series with SW480, 4.41; in the series with Huh-7 it was 4.15. The pIC50 is 4.39 in the series on SK-HEP1, 4.23 in the series with A549, 4.44 with MGC-803 and less than 3.70 in series [1].

As a reminder, the pIC50 is −log10 of the IC50, conventionally taken in molar units.
